Literature values, collected in US20060057183A1, “Indwelling stent” (priority 2003, published 2006).

System: human vascular cells
Details: Mohacsi et al., J Heart Lung Transplant 1997

## C=CC[C@@H]1/C=C(\C)C[C@H](C)C[C@H](OC)[C@H]2O[C@@](O)(C(=O)C(=O)N3CCCC[C@H]3C(=O)O[C@H](/C(C)=C/[C@@H]3CC[C@@H](O)[C@H](OC)C3)[C@H](C)[C@@H](O)CC1=O)[C@H](C)C[C@@H]2OC [tacrolimus (FK506), Tacrolimus]
  antiproliferative effects on human vascular cells: antiproliferative effects
